From the supplement of paper PMC10307832

What was measured:
Assay in all cases: relative viability (nuclei count vs DMSO), 5 days (fraction); higher = more cells survive
[1] = compound: CC(C)(C)c1cc(NC(=O)Nc2ccc(-c3cn4c(n3)sc3cc(OCCN5CCOCC5)ccc34)cc2)no1 [Quizartinib] + O=C(CCCCCCC(=O)Nc1ccccc1)NO [Vorinostat] (partner 1 µM)
How it was run: (§1)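 One day after seeding in 1536-well plates, lung cancer cell lines were dosed by pin tool. Dosing was either single-drug or a fixed anchor-drug dose plus five library-drug doses (not always all listed) in √10 steps. After 5 days, nuclei were stained in one fix-and-stain step and counted on 4× images, and relative viability is the nuclei count of treated wells over that of vehicle wells, given as the median of duplicate plates.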

[2] = compound: COCC[n+]1c2c(n(Cc3cnccn3)c1C)C(=O)c1ccccc1C2=O [YM155] + Cc1nc(Nc2ncc(C(=O)Nc3c(C)cccc3Cl)s2)cc(N2CCN(CCO)CC2)n1 [Dasatinib] (partner 0.075 µM)
How it was run: as §1

[3] = compound: COCC[n+]1c2c(n(Cc3cnccn3)c1C)C(=O)c1ccccc1C2=O [YM155] + Nc1ncn([C@H]2C[C@H](O)[C@@H](CO)O2)c(=O)n1 [Decitabine] (partner 2 µM)
How it was run: as §1

[4] = compound: COCC[n+]1c2c(n(Cc3cnccn3)c1C)C(=O)c1ccccc1C2=O [YM155] + O=C(CCCCCCC(=O)Nc1ccccc1)NO [Vorinostat] (partner 1 µM)
How it was run: as §1

Cell Line | relative viability ([1]; first compound 0.001 µM) | relative viability ([1]; first compound 0.003162 µM) | relative viability ([1]; first compound 0.01 µM) | relative viability ([1]; first compound 0.03162 µM) | relative viability ([1]; first compound 0.1 µM) | relative viability ([2]; first compound 0.002 µM) | relative viability ([2]; first compound 0.006325 µM) | relative viability ([2]; first compound 0.02 µM) | relative viability ([2]; first compound 0.06325 µM) | relative viability ([3]; first compound 0.002 µM) | relative viability ([3]; first compound 0.006325 µM) | relative viability ([3]; first compound 0.02 µM) | relative viability ([3]; first compound 0.06325 µM) | relative viability ([4]; first compound 0.002 µM) | relative viability ([4]; first compound 0.006325 µM) | relative viability ([4]; first compound 0.02 µM) | relative viability ([4]; first compound 0.06325 µM)
NCI-H727 | 1.16 | 1.13 | 1.18 | 1.27 | 1.42 | 0.359 | 0.5 | 0.389 | 0.352 | 0.871 | 1.01 | 0.867 | 0.857 | 1.32 | 1.28 | 1.27 | 1.29
NCI-H838 | 0.68 | 0.662 | 0.794 | 0.707 | 0.683 | – | 0.291 | 0.299 | 0.281 | 0.423 | 0.471 | 0.399 | 0.383 | 0.705 | 0.759 | 0.68 | 0.377
NCI-H1355 | 0.631 | 0.607 | 0.627 | 0.647 | 0.647 | 0.731 | 0.748 | 0.781 | 0.801 | 0.312 | 0.374 | 0.383 | 0.357 | 0.58 | 0.615 | 0.718 | 0.635
NCI-H1395 | 0.685 | 1.09 | 0.695 | 0.623 | 0.858 | 0.359 | 0.423 | 0.388 | 0.444 | 0.715 | 0.689 | 0.736 | 0.776 | 0.691 | 0.727 | 0.864 | 0.696
NCI-H1437 | 0.606 | 0.81 | 0.78 | 0.758 | 0.591 | 0.351 | 0.324 | 0.348 | 0.253 | 0.557 | 0.539 | 0.567 | 0.472 | 0.83 | 0.809 | 0.833 | 0.432
NCI-H1650 | 0.499 | 0.581 | 0.635 | – | 0.445 | 0.283 | 0.338 | 0.368 | 0.353 | 0.382 | 0.384 | 0.452 | 0.203 | 0.545 | 0.427 | 0.468 | 0.3
NCI-H1651 | 0.535 | 0.64 | 0.551 | 0.527 | 0.612 | 0.437 | 0.372 | 0.442 | 0.39 | 0.667 | 0.613 | 0.627 | 0.586 | 0.569 | 0.538 | 0.586 | 0.605
NCI-H1666 | 1.06 | 0.974 | 1.16 | 0.893 | 1.07 | 0.812 | 0.791 | 0.799 | 0.826 | 0.749 | 0.671 | 0.78 | 0.726 | 0.923 | 1.11 | 1.03 | 1.03
NCI-H1734 | 0.748 | 0.802 | 0.796 | 0.746 | 0.854 | 0.471 | 0.525 | 0.495 | 0.518 | 0.474 | 0.525 | 0.468 | 0.446 | 0.826 | 0.799 | 0.891 | 0.84
NCI-H1755 | 0.723 | 0.69 | 0.796 | 0.946 | 0.717 | 0.449 | 0.4 | 0.467 | 0.453 | 0.697 | 0.711 | 0.723 | 0.784 | 0.752 | 0.671 | 0.622 | 0.845
NCI-H1793 | 0.642 | 0.888 | 0.762 | 0.809 | 0.881 | 0.366 | 0.443 | 0.338 | 0.34 | 0.988 | 0.485 | 0.61 | 0.497 | 0.719 | 0.641 | 0.89 | 0.74
NCI-H1915 | 0.55 | 0.442 | 0.49 | 0.551 | 0.562 | 0.311 | 0.284 | 0.309 | 0.301 | 0.277 | 0.256 | 0.264 | 0.267 | 0.516 | 0.519 | 0.525 | 0.533
NCI-H1944 | 0.448 | 0.579 | 0.465 | 0.532 | 0.588 | 0.201 | 0.202 | 0.208 | 0.24 | 0.416 | 0.395 | 0.415 | 0.453 | 0.596 | 0.511 | 0.599 | 0.629
NCI-H1975 | 0.669 | 0.695 | 0.745 | 0.705 | 0.721 | 0.312 | 0.334 | 0.352 | 0.233 | 0.344 | 0.338 | 0.423 | 0.353 | 0.661 | 0.667 | 0.641 | 0.442
NCI-H1993 | 0.68 | 0.76 | 0.939 | 0.726 | 0.725 | 0.568 | 0.572 | 0.478 | 0.539 | 0.607 | 0.644 | 0.597 | 0.439 | 0.739 | 0.714 | 0.667 | 0.523
NCI-H2009 | 0.673 | 0.697 | 0.652 | 0.696 | 0.761 | 0.265 | 0.264 | 0.343 | 0.266 | 0.342 | 0.383 | 0.362 | 0.36 | 0.685 | 0.693 | 0.726 | 0.621
NCI-H2023 | 0.61 | 0.493 | 0.762 | – | 0.772 | 0.486 | 0.588 | 0.52 | 0.374 | 0.224 | 0.201 | 0.193 | 0.184 | 0.738 | 0.817 | 0.792 | 0.171

Cell Line | relative viability ([1]; first compound 0.001 µM) | relative viability ([1]; first compound 0.003162 µM) | relative viability ([1]; first compound 0.01 µM) | relative viability ([1]; first compound 0.03162 µM) | relative viability ([1]; first compound 0.1 µM) | relative viability ([2]; first compound 0.002 µM) | relative viability ([2]; first compound 0.006325 µM) | relative viability ([2]; first compound 0.02 µM) | relative viability ([2]; first compound 0.06325 µM) | relative viability ([3]; first compound 0.002 µM) | relative viability ([3]; first compound 0.006325 µM) | relative viability ([3]; first compound 0.02 µM) | relative viability ([3]; first compound 0.06325 µM) | relative viability ([4]; first compound 0.002 µM) | relative viability ([4]; first compound 0.006325 µM) | relative viability ([4]; first compound 0.02 µM) | relative viability ([4]; first compound 0.06325 µM)
NCI-H2085 | 0.694 | 0.784 | 0.791 | 0.796 | 0.733 | 0.287 | 0.224 | 0.23 | 0.211 | 0.594 | 0.557 | 0.54 | 0.471 | 0.677 | 0.795 | 0.757 | 0.625
NCI-H2087 | 0.751 | 0.705 | 0.676 | 0.384 | 0.73 | 0.765 | 0.78 | 0.964 | 0.775 | 0.37 | 0.282 | 0.245 | 0.293 | 0.667 | 0.759 | 0.55 | 0.44
NCI-H2126 | 0.621 | 0.789 | 0.711 | 0.816 | 0.841 | 0.583 | 0.673 | 0.626 | 0.745 | 0.53 | 0.624 | 0.59 | 0.6 | 0.782 | 0.834 | 0.865 | 0.851
NCI-H2170 | 0.745 | 0.803 | 0.808 | 0.89 | 0.867 | 0.485 | 0.628 | 0.572 | 0.625 | 0.506 | 0.508 | 0.42 | 0.516 | 0.725 | 0.752 | 0.863 | 0.842
NCI-H2342 | 0.804 | 0.717 | 0.669 | 0.69 | 0.617 | 0.308 | 0.336 | 0.329 | 0.301 | 0.729 | 0.709 | 0.788 | 0.717 | 0.717 | 0.724 | 0.705 | 0.704
NCI-H2347 | 0.544 | 0.647 | 0.715 | 0.522 | 0.603 | 0.323 | 0.321 | 0.35 | 0.334 | 0.64 | 0.612 | 0.648 | 0.539 | 0.506 | 0.488 | 0.521 | 0.476
NCI-H2405 | 0.943 | 0.967 | 0.763 | 0.902 | 1.17 | 0.191 | 0.22 | 0.206 | 0.21 | 0.711 | 0.7 | 0.644 | 0.397 | 0.973 | 0.964 | 0.917 | 0.533
NCI-H3122 | 0.89 | 0.799 | 0.915 | 1 | 0.994 | 0.548 | 0.641 | 0.857 | 0.932 | 0.428 | 0.432 | 0.482 | 0.486 | 0.828 | 0.746 | 1.05 | 0.976
PC-3 [JPC-3] | 0.758 | 0.889 | 0.55 | 0.596 | 0.912 | 0.917 | 1.04 | 1.02 | 1.01 | 0.778 | 0.796 | 0.89 | 0.701 | 0.746 | 0.889 | 0.855 | 0.74
PC-14 | 0.707 | 0.693 | 0.858 | – | 0.858 | 0.231 | 0.26 | 0.252 | 0.114 | 0.19 | 0.223 | 0.2 | 0.161 | 0.669 | 0.694 | 0.779 | 0.252
RERF-LC-KJ | 0.58 | 0.707 | 0.751 | 0.53 | 0.691 | 0.755 | 0.836 | 0.851 | 0.78 | 0.649 | 0.644 | 0.787 | 0.737 | 0.694 | 0.794 | 0.654 | 0.759
SK-LU-1 | 0.766 | 0.716 | 0.896 | 0.835 | 0.892 | 0.215 | 0.175 | 0.185 | 0.206 | 0.57 | 0.695 | 0.63 | 0.506 | 0.732 | 0.762 | 0.845 | 0.642
SK-MES-1 | 1.01 | 1 | 1.2 | 0.586 | 1.03 | 0.447 | 0.34 | 0.332 | 0.154 | 0.423 | 0.289 | 0.285 | 0.21 | 1 | 1.17 | 1.11 | 0.415
SW 900 | 0.402 | 0.561 | 0.373 | 0.608 | 0.583 | 0.443 | 0.523 | 0.845 | 0.666 | – | 0.431 | 0.399 | 0.458 | – | 0.465 | 0.582 | 0.408
SW 1573 | 0.556 | 0.715 | 0.684 | – | 1.27 | 0.446 | 0.474 | 0.133 | 0.0759 | 0.369 | 0.461 | 0.243 | 0.136 | 0.698 | 0.731 | 0.603 | 0.0728
UMC-11 | 0.376 | 0.333 | 0.336 | 0.338 | 0.358 | 0.374 | 0.49 | 0.518 | 0.51 | 0.551 | 0.574 | 0.725 | 0.626 | 0.392 | 0.35 | 0.377 | 0.343
